Experimental data published in patent US20260216348A1, “IRAK DEGRADATION AGENT AND USE THEREOF” (Increland, priority 2023, published 2026).

Assays:
[1] = tested on: R848-induced IL-6 secretion in human peripheral blood mononuclear cells (PBMCs); assay: Inhibition of R848-induced IL-6 secretion in human PBMCs (IL-6 ELISA); type: cell-based; settings: PBMC, R848 2.5 μg/mL, 20 h pre-incubation, 24 h stimulation
Procedure: This experiment was carried out in RPMI 1640 medium containing 10% FBS and 1% penicillin/streptomycin, with each of the compounds at an initial test concentration of 1 μM. The compound was dissolved in DMSO to prepare a stock solution, which was serially diluted into a series of working solutions with a 4-fold concentration gradient using the culture medium and then added to a 96-well plate at 10 μL per well. PBMCs (Batch No.: P122101102C; Milecell Biotechnology Inc.) were counted and diluted to a cell concentration of 1.25×10^6 cells/mL, and then added to the aforementioned compound-containing 96-well plate at 160 μL per well. The system was mixed well and incubated in a 5% CO2 incubator at 37° C. for 20 h. Then 10 μL of R848 (final concentration: 2.5 μg/mL) was added, and the culture was continued for 24 h in a 5% CO2 incubator at 37° C. After incubation, the 96-well plate was centrifuged at 2000 rpm for 4 min. The supernatant was collected and diluted 120-fold, then detected using an IL-6 ELISA kit. The OD450 values were read, and converted to IL-6 concentrations based on a standard curve.

[2] = molecular target: T1, IRAK4 (Homo sapiens, UniProt Q9NWZ3); assay: IRAK4 protein degradation in THP1 cells (Western blot); type: cell-based; settings: THP-1 cells, 24 h
T1 construct: Effect of the Compounds on IRAK4 Protein Degradation in THP1 Cells; endogenous in cells; host or cells: THP-1 cells
T1 sequence (Q9NWZ3 1-460): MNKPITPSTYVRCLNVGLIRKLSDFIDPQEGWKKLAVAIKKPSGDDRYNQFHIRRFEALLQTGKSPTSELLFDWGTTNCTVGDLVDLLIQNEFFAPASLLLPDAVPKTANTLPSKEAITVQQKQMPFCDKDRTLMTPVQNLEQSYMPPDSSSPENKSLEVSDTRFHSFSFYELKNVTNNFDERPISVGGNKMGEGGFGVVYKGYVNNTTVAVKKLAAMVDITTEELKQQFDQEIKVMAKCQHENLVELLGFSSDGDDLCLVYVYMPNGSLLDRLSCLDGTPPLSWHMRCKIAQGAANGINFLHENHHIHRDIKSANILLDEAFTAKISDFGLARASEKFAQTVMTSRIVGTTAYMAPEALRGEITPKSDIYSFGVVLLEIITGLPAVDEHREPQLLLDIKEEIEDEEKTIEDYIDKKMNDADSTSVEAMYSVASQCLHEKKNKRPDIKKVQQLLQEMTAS
Method in brief: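 THP-1 cells (2×10^5/well) were treated with 5-fold serial compound dilutions for 24 h at 37 °C, then lysed with proteasome/phosphatase inhibitors. IRAK4 was detected by Western blot with chemiluminescence and semi-quantified by densitometry. DC50 came from the concentration–response.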

[3] = Metabolic stability in human liver microsome; type: in vitro ADME; settings: NADPH, 60 min; for half-life at 1 µM: liver microsomes, read-out: Human liver microsome (t1/2, min)
Procedure: Clean incubation plates T60 and NCF60 were preheated at 37° C. for 10 min. Liver microsomes were diluted to a concentration of 0.56 mg/mL with 100 mM phosphate buffer, and 445 μL of the microsome working solution (0.56 mg/mL) was transferred to the preheated incubation plates T60 and NCF60, followed by incubation of the plates T60 and NCF60 with continuous shaking at 37° C. for 10 min. After incubation, 54 μL of liver microsomes were transferred to a blank plate, 6 μL of NAPDH cofactor was added to the blank plate, and then 180 μL of quenching solution was added to the blank plate. 5 μL of the compound working solution (100 μM) was added to the microsome-containing incubation plates T60 and NCF60, and mixed thoroughly 3 times. For plate NCF60, 50 μL of buffer was added and the system was mixed thoroughly 3 times before timing was started, and the plate was incubated with shaking at 37° C. for 60 min. For the quenching plate, 180 μL of quenching solution and 6 μL of NADPH cofactor were added, and the plate was ensured to be cooled to prevent evaporation. For the T60 plate, the mixture was thoroughly mixed 3 times, and 54 μL of the mixture was immediately transferred to the quenching plate at the time point of 0 min. Then 44 μL of the NAPDH cofactor was added to the incubation plate (T60). Timing was started, and the plate was incubated with shaking at 37° C. for 60 min. At the time points of 5, 15, 30, 45, and 60 min, 180 μL of the quenching solution was added to the quenching plate respectively, mixed once, and 60 μL of sample was continuously transferred from the plate T60 to the quenching plate at each time point. For plate NCF60, after mixing once, 60 μL of the sample was transferred from incubation plate NCF60 to the quenching plate containing quenching solution at the 60-min time point. All sampling plates were shaken for 10 min, then centrifuged at 4000 rpm at 4° C. for 20 min. 80 μL of the supernatant was transferred to 240 μL of HPLC water, and mixed using a plate shaker for 10 min. Each bioanalytical plate was sealed and shaken for 10 min before LC-MS/MS analysis.

[4] = tested on: LPS/IL-1β-induced IL-6 secretion in human peripheral blood mononuclear cells (PBMCs); assay: Inhibition of LPS/IL-1β-induced IL-6 secretion in human PBMCs (IL-6 ELISA); type: cell-based; settings: PBMC, LPS 10 ng/mL + IL-1β 20 ng/mL, 24 h pre-incubation, 20 h stimulation
Method in brief: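 IC50 values come from fitted curves of IL-6 levels, determined by ELISA (OD450, standard curve) in supernatants diluted 200-fold. Human PBMCs received 5-fold serial compound dilutions (top 1 μM) for 24 h before a 20 h challenge with final 10 ng/mL LPS and 20 ng/mL IL-1β, 37 °C, 5% CO2.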

[5] = tested on: IMQ psoriasis model; assay: IMQ (imiquimod)-induced psoriasis model; type: in vivo, BALB/c mice; settings: Mean ± SD, n = 7; for PASI Score d 6: Model 8.85 ± 1.66; for ΔSkin Thickness Change (μm) d 6: Model 80.95 ± 6.16
Procedure: Male BALB/c mice, aged 6-8 weeks, were randomly divided into 9 groups after 1 week of acclimatization: blank control group, imiquimod model group (IMQ group, corresponding to the model groups in FIGS. 1 and 2), clobetasol propionate cream group (CLO group), TYKI (BMS-986165) group, IRAK4 protein degrader KT-474 (from patent WO2020113233) group (100 mg/kg), and the compound of the present disclosure (at an appropriate dose), with 6-7 mice in each group. One day before modeling, the hair on the backs of the mice was removed with depilatory cream, with a depilated area of 2×2 cm^2. On the day of modeling, IMQ cream was used for modeling, and the corresponding drugs were administered intragastrically for treatment. The compound of the present disclosure (at an appropriate dose) was administered intragastrically once daily, and IMQ cream was applied to the hairless area on the back and left ear of mice 2 h after the first administration. […] The blank group and the IMQ group were administered with vehicle intragastrically twice daily (in the morning and evening), with an 8-h interval between the two intragastric administrations. At 2 h after the first intragastric administration, vaseline and IMQ cream were applied topically to the depilated back and ears of the mice, respectively. The dosage of IMQ cream administered to the depilated area on the back and the left ear was 80 mg and 10 mg, respectively, and the mice in each group were administered the cream for 5 consecutive days.
Reference was made to the Psoriasis Area and Severity Index (PASI) scoring criteria. The psoriasis, erythema, and thickness of skin lesions on the back were scored from 0 to 4 every morning from day 1 of modeling, with the scoring criteria as shown in Table 28. The 3 were added up to obtain a total score, i.e., a total PASI score. The ear thickness of the left ear of the mouse was measured using a digital vernier caliper three times every morning from day 1 of modeling, to obtain a mean value.

DC50 [2]	Molecule	IC50 [1]	IC50 [4]	other results
1.42 nM	CN(C)c1cc2nc([C@H]3CC[C@H](CN4C[C@@H](n5cc6cc(N7CCC(=O)NC7=O)ccc6n5)[C@@H](F)C4)CC3)cn2cc1NC(=O)c1cnn2cccnc12 [TM-230]	6.97 nM		
3 nM	CN(C)c1cc2nn([C@H]3CC[C@H](CN4CC[C@H](n5cc6cc(C7CCC(=O)NC7=O)c(F)cc6n5)[C@@H](F)C4)CC3)cc2cc1NC(=O)c1cnn2cccnc12 (stereo partly shown) [TM-134]		2.59 nM	half-life at 1 µM [3]: 114 min
1.17 nM	CN(C)c1cc2nn([C@H]3CC[C@H](CN4CC[C@@H](n5cc6cc(C7CCC(=O)NC7=O)ccc6n5)[C@H](F)C4)CC3)cc2cc1NC(=O)c1cnn2cccnc12 (stereo partly shown) [TM-167]	4.3 nM		
2.84 nM	CN(C)c1cc2nn([C@H]3CC[C@H](CN4CCC(n5cc6cc(NC7CCC(=O)NC7=O)ccc6n5)CC4)CC3)cc2cc1NC(=O)c1cnn2cccnc12 (stereo partly shown) [TM-196]	2.94 nM		
1.71 nM	CN(C)c1cc2nn([C@H]3CC[C@H](CN4CC[C@H](n5cc6cc(F)c(C7CCC(=O)NC7=O)cc6n5)[C@H](F)C4)CC3)cc2cc1NC(=O)c1cnn2cccnc12 (stereo partly shown) [TM-136]		6.63 nM	half-life at 1 µM [3]: 101 min
0.86 nM	CN(C)c1cc2nn([C@H]3CC[C@H](CN4CC[C@@H](n5cc6ccc(N7CCC(=O)NC7=O)cc6n5)C4)CC3)cc2cc1NC(=O)c1cnn2cccnc12 [TM-198]	20.8 nM		
3.23 nM	CN(C)c1cc2nn([C@H]3CC[C@H](CN4CCC[C@@H](n5cc6cc(N7CCC(=O)NC7=O)ccc6n5)C4)CC3)cc2cc1NC(=O)c1cnn2cccnc12 [TM-211]	1.73 nM		
< 1 nM	CN(C)c1cc2nc([C@H]3CC[C@H](CN4CCC(n5cc6c(F)cc(N7CCC(=O)NC7=O)cc6n5)CC4)CC3)cn2cc1NC(=O)c1cnn2cccnc12 [TM-231]	11.6 nM		
3.77 nM	CN(C)c1cc2nn(C3CCC(CN4C[C@@H](F)[C@H](n5cc6cc(N7CCC(=O)NC7=O)ccc6n5)C4)CC3)cc2cc1NC(=O)c1cnn2cccnc12 (stereo partly shown) [TM-208]	10.8 nM		
3.29 nM	CN(C)c1cc2nn([C@H]3CC[C@H](CN4CC[C@H](n5cc6ccc(N7CCC(=O)NC7=O)cc6n5)C4)CC3)cc2cc1NC(=O)c1cnn2cccnc12 [TM-197]	4.93 nM		
0.87 nM	CN(C)c1cc2nn([C@H]3CC[C@H](CN4C[C@@H](n5cc6ccc(N7CCC(=O)NC7=O)cc6n5)[C@@H](F)C4)CC3)cc2cc1NC(=O)c1cnn2cccnc12 [TM-199]	25.6 nM		

Continued, molecule first:

Molecule	DC50 [2]	IC50 [1]	IC50 [4]	other results
Deucravacitinib [TYKi, reference compound]				PASI Score d 6 ([5]; 30 mg/kg, BID): 4.32 ± 2.42; ΔSkin Thickness Change (μm) d 6 ([5]; 30 mg/kg, BID): 53.57 ± 15.87 μm
CN(C)c1cc2nn([C@H]3CC[C@H](CN4CC[C@@H](n5cc6ccc(C7CCC(=O)NC7=O)cc6n5)[C@H](F)C4)CC3)cc2cc1NC(=O)c1cnn2cccnc12 (stereo partly shown) [TM-152]	1.09 nM		9.43 nM	half-life at 1 µM [3]: 104 min
CN(C)c1cc2nn([C@H]3CC[C@H](CN4C[C@@H](F)[C@@H](n5cc6ccc(N7CCC(=O)NC7=O)cc6n5)C4)CC3)cc2cc1NC(=O)c1cnn2cccnc12 [TM-202]	0.95 nM	3.61 nM		
CCC(=O)O[C@]1(C(=O)CCl)[C@@H](C)C[C@H]2[C@@H]3CCC4=CC(=O)C=C[C@]4(C)[C@@]3(F)[C@@H](O)C[C@@]21C [CLO, Clobetasol propionate, reference compound]				PASI Score d 6 ([5]; 160 mg/animal): 1.17 ± 0.85; ΔSkin Thickness Change (μm) d 6 ([5]; 160 mg/animal): −18.10 ± 6.33 μm
CN(C)c1cc2nn(C3CCN(C[C@H]4CC[C@H](n5cc6cc(C7CCC(=O)NC7=O)c(F)cc6n5)CC4)CC3)cc2cc1NC(=O)c1cnn2cccnc12 (stereo partly shown) [TM-8]	3.58 nM		0.84 nM	Human liver microsome (t1/2, min) [3]: 145 min
CN(C)c1cc2nn([C@H]3CC[C@H](CN4C[C@@H](n5cc6cc(C7CCC(=O)NC7=O)ccc6n5)[C@@H](F)C4)CC3)cc2cc1NC(=O)c1cnn2cccnc12 (stereo partly shown) [TM-234]		14.4 nM	8.16 nM	
CN(C)c1cc2nn([C@H]3CC[C@H](CN4CCC(c5nc6cc(N7CCC(=O)NC7=O)ccc6o5)CC4)CC3)cc2cc1NC(=O)c1cnn2cccnc12 [TM-185]	3.22 nM	8.82 nM		
CN(C)c1cc2nn([C@H]3CC[C@H](CN4CC[C@H](n5cc6cc(F)c(C7CCC(=O)NC7=O)cc6n5)[C@@H](F)C4)CC3)cc2cc1NC(=O)c1cnn2cccnc12 (stereo partly shown) [TM-138]			6.96 nM	half-life at 1 µM [3]: 91 min
CN(C)c1cc2nn([C@H]3CC[C@H](CN4C[C@H](F)[C@@H](n5cc6cc(C7CCC(=O)NC7=O)ccc6n5)C4)CC3)cc2cc1NC(=O)c1cnn2cccnc12 (stereo partly shown) [TM-243]		7.67 nM	3.96 nM	
CN(C)c1cc2nn([C@H]3CC[C@H](CN4C[C@@H](F)[C@@H](n5cc6cc(N7CCC(=O)NC7=O)c(F)cc6n5)C4)CC3)cc2cc1NC(=O)c1cnn2cccnc12 [TM-239]		10.4 nM	7.31 nM	
